The values below come from patent publication US5905077A, “Inhibitors of HIV protease useful for the treatment of AIDS” (Eli Lilly and Company, priority 1997, dated 1999).

The target in the assay is T1, HIV-1 protease (Human immunodeficiency virus type 1 group M subtype B, UniProt P04585).
T1 construct: Purified HIV-1 protease was obtained as described above; made in house; host or cells: E. coli K12 L507/pHP10D (NRRL B-18560)
Briefly: biochemical. It is filed as biochemical. Here is the method: E. Fluorescence HIV-1 Protease Inhibitor Assay
The following buffers and solutions are used in the Fluorescence HIV-1 Protease Inhibitor Assay:
To each well of a round bottom, 96-well plate is added 20 μL of the Enzyme Solution followed by 10 μL of the compound to be evaluated in a 20% aqueous dimethylsulfoxide solution. Purified HIV-1 protease was obtained as described above. The resulting solution is incubated for one hour at room temperature and then 20 μL of a solution containing the substrate, prepared above, in MES-ALB buffer (1.5 μl/mL) is added to each well. The solutions are then incubated for 16 hours at room temperature and then each well is diluted with 150 μL of MES-ALB buffer.
To each well of a second round bottom, 96-well Pandex plate is added 25 μL of the Avidin Coated Beads Solution. Then, to each well is added 25 μL of the diluted incubation solutions, prepared above. The solutions are mixed thoroughly and the plates are loaded into a Pandex® machine, washed, evacuated and read. Sample detection was performed by excitation at 485 nm, reading the resulting epifluorescence at 535 nm.

Molecules are shown by their SMILES. Converted amounts (≈) assume the structure as drawn. Where two headings read alike, the source gives them in different places.

Regarding `CC(C)(C)NC(=O)[C@@H]1CN(Cc2cccnc2)CCN1C[C@@H](O)[C@H](Cc1ccccc1)NC(=O)[C@@H](CS(=O)(=O)c1ccc(F)cc1)NS(C)(=O)=O` (relative stereo) [Example 46], the IC50 was 1.23 nM. Compound `CC(=O)NC(CSCc1ccccc1)C(=O)NC(Cc1ccccc1)C(O)CN1CC2CCCCC2CC1C(=O)NC(C)(C)C` (stereo not drawn) [Example 33, [2R-(2R*,3R*,6R*,3'S*,4a'S*,8a'S*)]-N(t-Butyl)-2'-[2-hydroxy-3-phenylmethyl-4-aza-5-oxo-6-N(ethanoyl)amino-7-phenylmethylthio]heptyl decahydroisoquinoline-3'-carboxamide] had an IC50 (pH 5.5) of 1.1 nM. This counts as single-digit nanomolar. Compound `CC(=O)N[C@H](CS(=O)(=O)c1ccc2ccccc2c1)C(=O)N[C@@H](Cc1ccccc1)[C@H](O)CN1C[C@H]2CCCC[C@H]2C[C@H]1C(=O)NC(C)(C)C` [Example 36, [2R-(2R*,3R*,6R*,3'S*,4a'S*,8a'S*)]-N(t-Butyl)-2'-[2-hydroxy-3-phenylmethyl-4-aza-5-oxo-6-N(ethanoyl)amino-7-naphth-2ylsulfonyl]heptyl decahydroisoquinoline-3'-carboxamide] showed an IC50 of 0.426 nM. In other words, the sub-nanomolar range.

In turn, `CC(C)(C)NC(=O)[C@@H]1C[C@@H]2CCCC[C@@H]2CN1C[C@@H](O)[C@H](Cc1ccccc1)NC(=O)[C@@H](CSc1ccc(F)cc1)NS(C)(=O)=O` [Example 37, [2R-(2R*,3R*,6R*,3'S*,4a'S*,8a'S*)]-N(t-Butyl)-2'-[2-hydroxy-3-phenylmethyl-4-aza-5-oxo-6-N(methylsulfonyl)amino-7-p-fluoro-phenylthio]heptyl decahydroisoquinoline-3'-carboxamide] showed an IC50 of 5.32 nM. Compound `CC(C)(C)NC(=O)[C@@H]1C[C@@H]2CCCC[C@@H]2CN1C[C@@H](O)[C@H](Cc1ccccc1)NC(=O)[C@@H](C[S+]([O-])c1ccc(F)cc1)NS(C)(=O)=O` (stereo partly drawn) [Example 38, [2R-(2R*,3R*,6R*,3'S*,4a'S*,8a'S*)]-N(t-Butyl)-2'-[2-hydroxy-3-phenylmethyl-4-aza-5-oxo-6-N(methylsulfonyl)amino-7-p-fluoro-phenylsulfinyl]heptyl decahydroisoquinoline-3'-carboxamide] showed an IC50 of 0.722 nM. This IC50 lies about 7.4-fold lower than the previous one. Compound `CC(C)(C)NC(=O)[C@@H]1C[C@@H]2CCCC[C@@H]2CN1C[C@@H](O)[C@H](Cc1ccccc1)NC(=O)[C@@H](CS(=O)(=O)c1ccc(F)cc1)NS(C)(=O)=O` [Example 39, [2R-(2R*,3R*,6R*,3'S*,4a'S*,8a'S*)]-N(t-Butyl)-2'-[2-hydroxy-3-phenylmethyl-4-aza-5-oxo-6-N(methylsulfonyl)amino-7-p-fluoro-phenylsulfonyl]heptyl decahydroisoquinoline-3'-carboxamide] had an IC50 of 0.846 nM. The IC50 values of the last two compounds are within 1.5-fold of each other. `CC(C)(C)NC(=O)[C@@H]1C[C@@H]2CCCC[C@@H]2CN1C[C@@H](O)[C@H](Cc1ccccc1)NC(=O)[C@@H](CS(=O)(=O)c1ccc(F)cc1)NS(C)(=O)=O` [Example 40, [2R-(2R*,3R*,6R*,3'S*,4a'S*,8a'S*)]-N(t-Butyl)-2'-[2-hydroxy-3-phenylmethyl-4-aza-5-oxo-6-N(methylsulfonyl)amino-7-p-fluoro-phenylsulfonyl]heptyl decahydroisoquinoline-3'-carboxamide] gave an IC50 of 0.635 nM. On the same count and under the same terms, then `CC(C)(C)NC(=O)[C@@H]1C[C@@H]2CCCC[C@@H]2CN1C[C@@H](O)[C@H](Cc1ccccc1)NC(=O)[C@@H](CSc1ccc2ccccc2c1)NS(C)(=O)=O` [Example 41, [2R-(2R*,3R*,6R*,3'S*,4a'S*,8a'S*)]-N(t-Butyl)-2'-[2-hydroxy-3-phenylmethyl-4-aza-5-oxo-6-N(methylsulfonyl)amino-7-naphth-2-ylthio]heptyl decahydroisoquinoline-3'-carboxamide], with 7.76 nM. Same read-out and setting: the value for `CC(C)(C)NC(=O)[C@@H]1C[C@@H]2CCCC[C@@H]2CN1C[C@@H](O)[C@H](Cc1ccccc1)NC(=O)[C@@H](C[S+]([O-])c1ccc2ccccc2c1)NS(C)(=O)=O` (stereo partly drawn) [Example 42, [2R-(2R*,3R*,6R*,3'S*,4a'S*,8a'S*)]-N(t-Butyl)-2'-[2-hydroxy-3-phenylmethyl-4-aza-5-oxo-6-N(methylsulfonyl)amino-7-naphth-2-ylsulfinyl]heptyl decahydroisoquinoline-3'-carboxamide] was 0.621 nM; that for `CC(C)(C)NC(=O)[C@@H]1C[C@@H]2CCCC[C@@H]2CN1C[C@@H](O)[C@H](Cc1ccccc1)NC(=O)[C@@H](CS(=O)(=O)c1ccc2ccccc2c1)NS(C)(=O)=O` [Example 44, [2R-(2R*,3R*,6R*,3'S*,4a'S*,8a'S*)]-N(t-Butyl)-2'-[2-hydroxy-3-phenylmethyl-4-aza-5-oxo-6-N(methylsulfonyl)amino-7-naphth-2-ylsulfonyl]heptyl decahydroisoquinoline-3'-carboxamide] was 0.202 nM; that for `CC(C)(C)NC(=O)[C@@H]1C[C@@H]2CCCC[C@@H]2CN1C[C@@H](O)[C@H](CSc1ccccc1)NC(=O)[C@@H](CS(=O)(=O)c1ccc(F)cc1)NS(C)(=O)=O` [Example 47] was 10.9 nM. For `CC(C)(C)NC(=O)[C@@H]1C[C@@H]2CCCC[C@@H]2CN1C[C@@H](O)[C@H](CSc1ccccc1)NC(=O)[C@@H](CS(=O)(=O)c1ccc2ccccc2c1)NS(C)(=O)=O` [Example 48], under “read-out: Fluorescence Assay IC65 (65% inhibition at 0.16 ng/mL)”, the IC65 came to 0.16 ng/mL (≈ 0.207 nM).

`CC(=O)N[C@H](CSCc1ccccc1)C(=O)N[C@@H](Cc1ccccc1)[C@H](O)CN1C[C@H]2CCCC[C@H]2C[C@H]1C(=O)NC(C)(C)C` [Example 49, [2R-(2R*,3R*,6R*,3'S*,4a'S*,8a'S*)]-N(t-Butyl)-2'-[2-hydroxy-3-phenylmethyl-4-aza-5-oxo-6-N(ethanoyl)amino-7-phenylmethylthio]heptyl decahydroisoquinoline-3'-carboxamide] gave an IC50 of 1.1 nM.

What is called IC50 is the concentration that inhibits the measured activity by half. A higher IC50 goes with lower potency.
